Assays:
Test in all cases: biochemical
NSD2 = target: T1, NSD2 (Homo sapiens, UniProt O96028); parameters: MTase-Glo bioluminescence methyltransferase assay, full-length NSD2 with HeLa nucleosomes; details: read-out: MTase-Glo IC50
T1 construct: full length (residues 2-1365), N-terminal His tag, insect cell/baculovirus
T1 sequence (O96028 2-1365): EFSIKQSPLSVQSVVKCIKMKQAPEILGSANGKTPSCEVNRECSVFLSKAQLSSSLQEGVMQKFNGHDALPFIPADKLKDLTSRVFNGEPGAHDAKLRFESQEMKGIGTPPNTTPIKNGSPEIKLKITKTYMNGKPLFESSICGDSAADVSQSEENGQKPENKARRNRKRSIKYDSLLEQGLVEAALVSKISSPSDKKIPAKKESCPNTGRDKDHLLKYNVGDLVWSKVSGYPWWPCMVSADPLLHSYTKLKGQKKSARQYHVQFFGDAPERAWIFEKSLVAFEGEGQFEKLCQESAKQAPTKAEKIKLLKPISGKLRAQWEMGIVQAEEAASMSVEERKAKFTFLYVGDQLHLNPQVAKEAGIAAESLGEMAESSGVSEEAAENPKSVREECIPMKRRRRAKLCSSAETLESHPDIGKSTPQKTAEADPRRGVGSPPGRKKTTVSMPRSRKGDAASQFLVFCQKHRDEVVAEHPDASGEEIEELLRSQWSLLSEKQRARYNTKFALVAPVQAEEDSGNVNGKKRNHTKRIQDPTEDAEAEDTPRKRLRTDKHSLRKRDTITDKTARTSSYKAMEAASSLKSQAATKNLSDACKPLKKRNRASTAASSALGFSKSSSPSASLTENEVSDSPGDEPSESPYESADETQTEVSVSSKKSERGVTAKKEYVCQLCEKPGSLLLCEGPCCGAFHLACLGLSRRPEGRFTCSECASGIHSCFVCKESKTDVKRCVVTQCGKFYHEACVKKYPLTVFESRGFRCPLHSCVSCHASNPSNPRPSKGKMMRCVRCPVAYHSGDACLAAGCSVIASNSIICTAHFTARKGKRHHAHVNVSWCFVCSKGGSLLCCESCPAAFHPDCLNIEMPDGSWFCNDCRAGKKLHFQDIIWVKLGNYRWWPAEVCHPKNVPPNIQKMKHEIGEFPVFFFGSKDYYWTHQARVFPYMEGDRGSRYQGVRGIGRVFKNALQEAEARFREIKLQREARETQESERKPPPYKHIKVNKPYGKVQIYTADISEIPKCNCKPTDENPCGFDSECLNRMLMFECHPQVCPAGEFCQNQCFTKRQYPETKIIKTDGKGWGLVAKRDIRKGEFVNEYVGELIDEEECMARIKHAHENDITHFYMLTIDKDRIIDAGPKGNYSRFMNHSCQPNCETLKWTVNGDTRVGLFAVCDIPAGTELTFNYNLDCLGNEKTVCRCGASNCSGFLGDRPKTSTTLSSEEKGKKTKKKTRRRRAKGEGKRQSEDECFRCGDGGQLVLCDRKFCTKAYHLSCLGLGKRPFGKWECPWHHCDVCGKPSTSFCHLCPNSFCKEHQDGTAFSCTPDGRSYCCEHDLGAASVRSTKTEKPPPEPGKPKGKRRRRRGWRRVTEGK
Description: A major challenge in screening for small molecule inhibitors is that native NSD2 requires nucleosomes as a substrate ([17]). […] Chemical libraries were screened in 3-dose point quantitative high-throughput screening (qHTS) format ([43]) with the Methyltransferase-Glo (MTase-Glo™) methyltransferase bioluminescence assay ([44]). A number of counter and orthogonal assays were also developed to characterize the hits from the primary screen. Confirmed hits were validated with a radiolabeled SAM substrate-based NSD2 activity assay and further interrogated with binding studies by surface plasmon resonance (SPR), methyltransferase profiling, and activity assessments in U-2 OS cells. […] Overall the reaction conditions were very similar.

GLP = target: T2, GLP (Homo sapiens, UniProt Q9H9B1); details: read-out: DA3003-1 IC50; inhibitor
T2 construct: gene EHMT1
T2 sequence (Q9H9B1 1-1298): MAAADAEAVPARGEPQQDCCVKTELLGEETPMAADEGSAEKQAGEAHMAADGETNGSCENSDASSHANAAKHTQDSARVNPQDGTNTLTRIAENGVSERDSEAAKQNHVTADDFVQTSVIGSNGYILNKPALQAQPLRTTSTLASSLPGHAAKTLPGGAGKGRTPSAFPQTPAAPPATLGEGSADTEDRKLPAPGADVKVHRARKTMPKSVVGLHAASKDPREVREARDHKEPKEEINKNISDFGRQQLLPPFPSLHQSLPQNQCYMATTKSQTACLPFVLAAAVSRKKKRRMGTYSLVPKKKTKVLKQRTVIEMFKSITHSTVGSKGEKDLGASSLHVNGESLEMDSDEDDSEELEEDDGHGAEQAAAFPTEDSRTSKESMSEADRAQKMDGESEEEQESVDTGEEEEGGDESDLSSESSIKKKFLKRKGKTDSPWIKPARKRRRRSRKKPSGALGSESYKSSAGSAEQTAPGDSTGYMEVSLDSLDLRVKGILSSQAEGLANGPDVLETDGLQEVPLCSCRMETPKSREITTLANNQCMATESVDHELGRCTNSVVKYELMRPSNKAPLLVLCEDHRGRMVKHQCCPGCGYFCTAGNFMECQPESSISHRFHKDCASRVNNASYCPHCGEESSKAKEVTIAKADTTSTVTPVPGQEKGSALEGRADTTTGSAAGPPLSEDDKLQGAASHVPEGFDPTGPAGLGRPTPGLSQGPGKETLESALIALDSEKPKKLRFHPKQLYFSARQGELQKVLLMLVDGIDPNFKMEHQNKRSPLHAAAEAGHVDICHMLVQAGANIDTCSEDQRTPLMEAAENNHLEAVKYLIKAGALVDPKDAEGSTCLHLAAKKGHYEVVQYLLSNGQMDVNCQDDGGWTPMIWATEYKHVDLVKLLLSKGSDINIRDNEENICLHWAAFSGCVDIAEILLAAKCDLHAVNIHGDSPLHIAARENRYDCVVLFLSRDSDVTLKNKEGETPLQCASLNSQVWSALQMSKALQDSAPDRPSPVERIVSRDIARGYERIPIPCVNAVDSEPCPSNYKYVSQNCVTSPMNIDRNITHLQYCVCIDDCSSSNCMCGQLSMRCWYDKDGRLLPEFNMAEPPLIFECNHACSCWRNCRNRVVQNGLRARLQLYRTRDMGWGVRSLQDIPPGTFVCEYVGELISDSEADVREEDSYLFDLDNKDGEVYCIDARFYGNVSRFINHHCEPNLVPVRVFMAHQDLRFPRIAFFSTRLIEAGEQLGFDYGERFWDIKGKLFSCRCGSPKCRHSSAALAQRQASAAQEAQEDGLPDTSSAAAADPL

PRMT7 = PRMT7 (Homo sapiens, UniProt Q9NVM4); details: read-out: DA3003-1 IC50; inhibitor
Sequence of PRMT7 (Q9NVM4 whole entry): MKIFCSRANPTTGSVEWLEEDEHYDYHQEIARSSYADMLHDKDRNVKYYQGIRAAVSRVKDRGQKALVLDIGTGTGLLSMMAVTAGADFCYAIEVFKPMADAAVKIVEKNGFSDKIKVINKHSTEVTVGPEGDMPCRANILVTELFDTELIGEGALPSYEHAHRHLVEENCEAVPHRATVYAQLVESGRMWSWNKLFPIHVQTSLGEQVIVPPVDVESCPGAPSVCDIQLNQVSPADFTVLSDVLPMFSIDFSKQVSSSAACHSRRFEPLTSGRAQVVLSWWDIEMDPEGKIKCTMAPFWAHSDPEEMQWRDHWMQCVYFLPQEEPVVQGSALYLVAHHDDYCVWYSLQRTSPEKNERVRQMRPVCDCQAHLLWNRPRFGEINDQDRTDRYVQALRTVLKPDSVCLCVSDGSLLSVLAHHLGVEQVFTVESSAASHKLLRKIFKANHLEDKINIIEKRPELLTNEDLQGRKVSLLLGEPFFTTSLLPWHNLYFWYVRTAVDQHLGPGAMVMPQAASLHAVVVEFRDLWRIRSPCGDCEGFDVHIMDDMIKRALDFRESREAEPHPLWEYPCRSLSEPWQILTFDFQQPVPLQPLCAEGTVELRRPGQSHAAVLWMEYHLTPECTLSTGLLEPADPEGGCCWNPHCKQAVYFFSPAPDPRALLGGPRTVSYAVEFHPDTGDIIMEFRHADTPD

Row | IC50 (NSD2) [µM] | IC50 (GLP) [µM] | IC50 (PRMT7) [µM] | SMILES
1 | 15 | – | – | CC1(C)CCC(CN2CCN(c3ccc(C(=O)NS(=O)(=O)c4ccc(NCC5CCOCC5)c([N+](=O)[O-])c4)c(Oc4cnc5[nH]ccc5c4)c3)CC2)=C(c2ccc(Cl)cc2)C1 [ABT-199]
2 | – | 36 | 0.42 | O=C1C(Cl)=C(NCCN2CCOCC2)C(=O)c2ncccc21 [DA3003-1]
